Source: ChEMBL document CHEMBL1157092, “Jacaranone-derived glucosidic esters from Jacaranda glabra and their activity against Plasmodium falciparum” (J Nat Prod, 2010)
In brackets after ≈: the same amount, converted by molar mass.

Key:
[1] = system: Plasmodium falciparum; assay: Antiplasmodial activity against chloroquine and pyrimethamine-resistant Plasmodium falciparum K1 infected in human erythrocytes after 48 hrs by [3]H-hypoxanthine incorporation assay; format: functional, organism-based; conditions: K1, 48 h
[2] = system: L6; assay: Cytotoxicity against rat L6 cells after 72 hrs by alamar blue assay; format: cell-based; conditions: L6, 72 h

Compound	IC50 [1]	IC50 [2]
O=C1C=CC(O)(CC(=O)OC[C@H]2O[C@@H](OC(=O)CC3(O)C=CC(=O)C=C3)[C@H](OC(=O)Cc3ccc(O)cc3)[C@@H](OC(=O)Cc3ccccc3)[C@@H]2O)C=C1 [JACAGLABROSIDE C]	0.56 µg/mL (≈ 0.764 µM)	87 µg/mL (≈ 119 µM)
O=C(O)Cc1ccccc1 [PHENYLACETIC ACID]	> 5 µg/mL	> 90 µg/mL
O=C1C=CC(O)(CC(=O)OC[C@H]2O[C@@H](OC(=O)CC3(O)C=CC(=O)C=C3)[C@H](OC(=O)Cc3ccccc3)[C@@H](OC(=O)Cc3ccc(O)cc3)[C@@H]2O)C=C1 [JACAGLABROSIDE D]	0.55 µg/mL (≈ 0.751 µM)	84.8 µg/mL (≈ 116 µM)
O=C1C=CC(O)(CC(=O)OC[C@H]2O[C@@H](OC(=O)CC3(O)C=CC(=O)C=C3)[C@H](OC(=O)Cc3ccccc3)[C@@H](O)[C@@H]2O)C=C1 [JACAGLABROSIDE B]	0.56 µg/mL (≈ 0.936 µM)	> 90 µg/mL
O=C1C=CC(O)(CC(=O)OC[C@H]2O[C@@H](OC(=O)CC3(O)C=CC(=O)C=C3)[C@H](OC(=O)Cc3ccccc3)[C@@H](OC(=O)Cc3ccccc3)[C@@H]2O)C=C1 [JACAGLABROSIDE A]	1.02 µg/mL (≈ 1.42 µM)	8.3 µg/mL (≈ 11.6 µM)
COC(=O)CC1(O)C=CC(=O)C=C1 [JACARANONE]	1.32 µg/mL (≈ 7.25 µM)	1.06 µg/mL (≈ 5.82 µM)
